Data published in PubChem BioAssay AID2060890 (Molecular Pharmacology Branch, DTP, NCI, 2025).
Each block holds one compound with its values, some of them ahead of it.

Test system: LG0703-F948-PDC complex spheroid viability
Assay: Anticancer human tumor LG0703-F948-PDC patient-derived lung adenocarcinoma cell line growth inhibition [RAS]
Settings: for IC50: curve of first compound; for viability, T/C: stronger effect = lower value
Summary of the method: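 Tumour cells grown as complex spheroids with HUVEC endothelial cells and mesenchymal stem cells, treated with RAS pathway inhibitor combinations. Each agent spans half-log steps from near clinical Cmax, or 10 microM where Cmax is unknown.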
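Further: spheroids exposed to agents for 7 days.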
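Wherever viability, T/C is given: 100% = DMSO vehicle wells.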

IC50 (second compound 0.00316 µM): > 300 nM
IC50 (second compound 0.01 µM): > 300 nM
IC50 (second compound 0.0316 µM): > 300 nM
IC50 (second compound 0.1 µM): > 300 nM
IC50 (second compound 0.316 µM): > 300 nM
IC50 (second compound 1 µM): > 300 nM
SMILES: CC1(C)CCC(Nc2ncc(C(F)(F)F)c(-c3c[nH]c4c(P(C)(C)=O)c(C#N)ccc34)n2)CN1 (stereo unspecified) + C=CC(=O)N1CCN(c2nc(OCC3CCCN3C)nc3c(F)c(-c4nc(N)cc(C)c4C(F)(F)F)c(Cl)cc23)C(C)C1
viability, T/C (second compound 0.00316 µM, first compound 0.000949 µM): 84.1%
viability, T/C (second compound 0.00316 µM, first compound 0.003 µM): 76.8%
viability, T/C (second compound 0.00316 µM, first compound 0.00949 µM): 63.5%
viability, T/C (second compound 0.00316 µM, first compound 0.03 µM): 62.8%
viability, T/C (second compound 0.00316 µM, first compound 0.0949 µM): 57%
viability, T/C (second compound 0.00316 µM, first compound 0.3 µM): 57.3%
viability, T/C (second compound 0.01 µM, first compound 0.000949 µM): 88.5%
viability, T/C (second compound 0.01 µM, first compound 0.003 µM): 78.8%
viability, T/C (second compound 0.01 µM, first compound 0.00949 µM): 67%
viability, T/C (second compound 0.01 µM, first compound 0.03 µM): 52.9%
viability, T/C (second compound 0.01 µM, first compound 0.0949 µM): 58.7%
viability, T/C (second compound 0.01 µM, first compound 0.3 µM): 62%
viability, T/C (second compound 0.0316 µM, first compound 0.000949 µM): 94%
viability, T/C (second compound 0.0316 µM, first compound 0.003 µM): 71.4%
viability, T/C (second compound 0.0316 µM, first compound 0.00949 µM): 68.8%
viability, T/C (second compound 0.0316 µM, first compound 0.03 µM): 53.2%
viability, T/C (second compound 0.0316 µM, first compound 0.0949 µM): 54.7%
viability, T/C (second compound 0.0316 µM, first compound 0.3 µM): 62.1%
viability, T/C (second compound 0.1 µM, first compound 0.000949 µM): 82.3%
viability, T/C (second compound 0.1 µM, first compound 0.003 µM): 77.1%
viability, T/C (second compound 0.1 µM, first compound 0.00949 µM): 55.9%
viability, T/C (second compound 0.1 µM, first compound 0.03 µM): 52.9%
viability, T/C (second compound 0.1 µM, first compound 0.0949 µM): 58.4%
viability, T/C (second compound 0.1 µM, first compound 0.3 µM): 65.3%
viability, T/C (second compound 0.316 µM, first compound 0.000949 µM): 98.4%
viability, T/C (second compound 0.316 µM, first compound 0.003 µM): 78.5%
viability, T/C (second compound 0.316 µM, first compound 0.00949 µM): 62.2%
viability, T/C (second compound 0.316 µM, first compound 0.03 µM): 62%
viability, T/C (second compound 0.316 µM, first compound 0.0949 µM): 58.8%
viability, T/C (second compound 0.316 µM, first compound 0.3 µM): 67.3%
viability, T/C (second compound 1 µM, first compound 0.000949 µM): 84.8%
viability, T/C (second compound 1 µM, first compound 0.003 µM): 77.8%
viability, T/C (second compound 1 µM, first compound 0.00949 µM): 64.5%
viability, T/C (second compound 1 µM, first compound 0.03 µM): 57.4%
viability, T/C (second compound 1 µM, first compound 0.0949 µM): 66.1%
viability, T/C (second compound 1 µM, first compound 0.3 µM): 59.9%

IC50 (second compound 0.000949 µM): 427 nM
IC50 (second compound 0.003 µM): < 31.6 nM
IC50 (second compound 0.00949 µM): < 31.6 nM
IC50 (second compound 0.03 µM): < 31.6 nM
IC50 (second compound 0.0949 µM): < 31.6 nM
IC50 (second compound 0.3 µM): < 31.6 nM
SMILES: CCC(CC)c1cc(NC2CCC(N)C2)n2nccc2n1 (stereo unspecified) + CCn1c(-c2cc(N3CCN(C)CC3)cnc2C(C)OC)c2c3cc(ccc31)-c1csc(n1)CC(NC(=O)C1CC1C)C(=O)N1CCCC(N1)C(=O)OCC(C)(C)C2
viability, T/C (second compound 0.000949 µM, first compound 0.0316 µM): 72.3%
viability, T/C (second compound 0.000949 µM, first compound 0.1 µM): 59.8%
viability, T/C (second compound 0.000949 µM, first compound 0.316 µM): 55.2%
viability, T/C (second compound 0.000949 µM, first compound 1 µM): 33.9%
viability, T/C (second compound 0.000949 µM, first compound 3.16 µM): 0.67%
viability, T/C (second compound 0.000949 µM, first compound 10 µM): 0.23%
viability, T/C (second compound 0.003 µM, first compound 0.0316 µM): 44.1%
viability, T/C (second compound 0.003 µM, first compound 0.1 µM): 40.2%
viability, T/C (second compound 0.003 µM, first compound 0.316 µM): 36.8%
viability, T/C (second compound 0.003 µM, first compound 1 µM): 25.3%
viability, T/C (second compound 0.003 µM, first compound 3.16 µM): 0.46%
viability, T/C (second compound 0.003 µM, first compound 10 µM): 0.16%
viability, T/C (second compound 0.00949 µM, first compound 0.0316 µM): 24.1%
viability, T/C (second compound 0.00949 µM, first compound 0.1 µM): 20.3%
viability, T/C (second compound 0.00949 µM, first compound 0.316 µM): 17.9%
viability, T/C (second compound 0.00949 µM, first compound 1 µM): 9.58%
viability, T/C (second compound 0.00949 µM, first compound 3.16 µM): 0.42%
viability, T/C (second compound 0.00949 µM, first compound 10 µM): 0.27%
viability, T/C (second compound 0.03 µM, first compound 0.0316 µM): 13%
viability, T/C (second compound 0.03 µM, first compound 0.1 µM): 13.9%
viability, T/C (second compound 0.03 µM, first compound 0.316 µM): 13.1%
viability, T/C (second compound 0.03 µM, first compound 1 µM): 6.07%
viability, T/C (second compound 0.03 µM, first compound 3.16 µM): 0.25%
viability, T/C (second compound 0.03 µM, first compound 10 µM): 0.24%
viability, T/C (second compound 0.0949 µM, first compound 0.0316 µM): 9.5%
viability, T/C (second compound 0.0949 µM, first compound 0.1 µM): 10.2%
viability, T/C (second compound 0.0949 µM, first compound 0.316 µM): 9.16%
viability, T/C (second compound 0.0949 µM, first compound 1 µM): 5.84%
viability, T/C (second compound 0.0949 µM, first compound 3.16 µM): 0.57%
viability, T/C (second compound 0.0949 µM, first compound 10 µM): 0.11%
viability, T/C (second compound 0.3 µM, first compound 0.0316 µM): 8.46%
viability, T/C (second compound 0.3 µM, first compound 0.1 µM): 9.75%
viability, T/C (second compound 0.3 µM, first compound 0.316 µM): 8.9%
viability, T/C (second compound 0.3 µM, first compound 1 µM): 4.9%
viability, T/C (second compound 0.3 µM, first compound 3.16 µM): 0.23%
viability, T/C (second compound 0.3 µM, first compound 10 µM): 0.41%

IC50 (second compound 0.0316 µM): 1150 nM
IC50 (second compound 0.1 µM): 1120 nM
IC50 (second compound 0.316 µM): 1350 nM
IC50 (second compound 1 µM): 936 nM
IC50 (second compound 3.16 µM): 456 nM
IC50 (second compound 10 µM): 35.1 nM
SMILES: CCC(CC)c1cc(NC2CCC(N)C2)n2nccc2n1 (stereo unspecified) + C#Cc1c(F)ccc2cc(O)cc(-c3ncc4c(N5CC6CCC(C5)N6)nc(OCC56CCCN5CC(F)C6)nc4c3F)c12
viability, T/C (second compound 0.0316 µM, first compound 0.0316 µM): 95%
viability, T/C (second compound 0.0316 µM, first compound 0.1 µM): 80.1%
viability, T/C (second compound 0.0316 µM, first compound 0.316 µM): 83.9%
viability, T/C (second compound 0.0316 µM, first compound 1 µM): 56.7%
viability, T/C (second compound 0.0316 µM, first compound 3.16 µM): 2.63%
viability, T/C (second compound 0.0316 µM, first compound 10 µM): 0.05%
viability, T/C (second compound 0.1 µM, first compound 0.0316 µM): 97.5%
viability, T/C (second compound 0.1 µM, first compound 0.1 µM): 80.8%
viability, T/C (second compound 0.1 µM, first compound 0.316 µM): 87.7%
viability, T/C (second compound 0.1 µM, first compound 1 µM): 55.1%
viability, T/C (second compound 0.1 µM, first compound 3.16 µM): 2.53%
viability, T/C (second compound 0.1 µM, first compound 10 µM): 0.22%
viability, T/C (second compound 0.316 µM, first compound 0.0316 µM): 81.2%
viability, T/C (second compound 0.316 µM, first compound 0.1 µM): 68%
viability, T/C (second compound 0.316 µM, first compound 0.316 µM): 73.4%
viability, T/C (second compound 0.316 µM, first compound 1 µM): 66.5%
viability, T/C (second compound 0.316 µM, first compound 3.16 µM): 3.15%
viability, T/C (second compound 0.316 µM, first compound 10 µM): 0.1%
viability, T/C (second compound 1 µM, first compound 0.0316 µM): 73.4%
viability, T/C (second compound 1 µM, first compound 0.1 µM): 69.8%
viability, T/C (second compound 1 µM, first compound 0.316 µM): 65.1%
viability, T/C (second compound 1 µM, first compound 1 µM): 49.3%
viability, T/C (second compound 1 µM, first compound 3.16 µM): 2.65%
viability, T/C (second compound 1 µM, first compound 10 µM): 0.06%
viability, T/C (second compound 3.16 µM, first compound 0.0316 µM): 64%
viability, T/C (second compound 3.16 µM, first compound 0.1 µM): 55.3%
viability, T/C (second compound 3.16 µM, first compound 0.316 µM): 56.7%
viability, T/C (second compound 3.16 µM, first compound 1 µM): 33.8%
viability, T/C (second compound 3.16 µM, first compound 3.16 µM): 1.79%
viability, T/C (second compound 3.16 µM, first compound 10 µM): 0.56%
viability, T/C (second compound 10 µM, first compound 0.0316 µM): 45%
viability, T/C (second compound 10 µM, first compound 0.1 µM): 56%
viability, T/C (second compound 10 µM, first compound 0.316 µM): 31.7%
viability, T/C (second compound 10 µM, first compound 1 µM): 19%
viability, T/C (second compound 10 µM, first compound 3.16 µM): 0.77%
viability, T/C (second compound 10 µM, first compound 10 µM): 0.53%
